Results on 29 compounds are retold here after patent US20130116263A1, “PAK INHIBITORS FOR THE TREATMENT OF CELL PROLIFERATIVE DISORDERS” (AFRAXIS, INC., priority 2011, published 2013).

What all share (format): biochemical
For test [1], the target named is PAK1 (Homo sapiens, UniProt Q13153). The experiment in a line: In vitro PAK inhibition assay (Z'-LYTE, SelectScreen), PAK1. Particulars: read-out: PAK1 IC50. The procedure:
(§1) Compounds are screened in 1% DMSO (final) in the well. For 10 point titrations, 3-fold serial dilutions are conducted. All Peptide/Kinase Mixtures are diluted to a 2× working concentration in the appropriate Kinase Buffer
The 2×PAK1/Ser/Thr 19 mixture is prepared in 50 mM HEPES pH 7.5, 0.01% BRIJ-35, 10 mM MgCl2, 1 mM EGTA.
(§2) 1. Add the following solutions to a well in a 384-well plate: • 2.5 μL of 4× Test Compound OR (100 nL 100× Test Compound plus 2.4 μL kinase buffer) • 5 μL of 2× Peptide/Kinase (PAK) Mixture • 2.5 μL of 4×ATP Solution
(§3) 3. Incubate the PAK Kinase Reaction at room temperature for 60-minutes
(§4) 4. Add 5 μL of Development Reagent Solution to each well
(§5) 6. Incubate the Development Reaction for 60-minutes
(§6) 7. Determine the fluorescence using a fluorescence plate reader
(§7) SelectScreen® Kinase Profiling Service uses XLfit from IDBS.
(§8) The representative IC50 value with a known inhibitor for each kinase was determined at the ATP bin nearest to the ATP Km app.

Test [2] addresses PAK2 (PAK65) (Homo sapiens, UniProt Q13177). As to the kind of experiment: In vitro PAK inhibition assay (Z'-LYTE, SelectScreen), PAK2. Particulars: read-out: PAK2 IC50. The procedure: as §1
The 2×PAK2 (PAK65)/Ser/Thr 20 mixture is prepared in 50 mM HEPES pH 7.5, 0.01% BRIJ-35, 10 mM MgCl2, 1 mM EGTA. The final 10 μL Kinase Reaction consists of 0.29-6 ng PAK2 (PAK65) and 2 μM Ser/Thr 20 in 50 mM HEPES pH 7.5, 0.01% BRIJ-35, 10 mM MgCl2, 1 mM EGTA.
as §2, §3, §4, §5, §6, §7, §8

The target in test [3] is PAK3 (Homo sapiens, UniProt O75914). The experiment in a line: In vitro PAK inhibition assay (Z'-LYTE, SelectScreen), PAK3. Particulars: read-out: PAK3 IC50. The procedure:
as §1
The 2×PAK3/Ser/Thr 20 mixture is prepared in 50 mM HEPES pH 7.5, 0.01% BRIJ-35, 10 mM MgCl2, 1 mM EGTA.
as §2, §3, §4, §5, §6, §7, §8

Test [4] addresses PAK4 (Homo sapiens, UniProt O96013). As to the kind of experiment: In vitro PAK inhibition assay (Z'-LYTE, SelectScreen), PAK4. The procedure: as §1
The 2×PAK-4/Ser/Thr 20 mixture is prepared in 50 mM HEPES pH 7.5, 0.01% BRIJ-35, 10 mM MgCl2, 1 mM EGTA. The final 10 μL Kinase Reaction consists of 0.1-0.75 ng PAK-4 and 2 μM Ser/Thr 20 in 50 mM HEPES pH 7.5, 0.01% BRIJ-35, 10 mM MgCl2, 1 mM EGTA. After the 1 hour Kinase Reaction incubation, 5 μL of a 1:256 dilution of Development Reagent A is added.
as §2, §3, §4, §5, §6
SelectScreen® Kinase Profiling Service uses XLfit from IDBS. The dose response curve is curve fit to model number 205 (sigmoidal dose-response model).
The table below provides specifications and data around each kinase. The representative IC50 value with a known inhibitor for each kinase was determined at the ATP bin nearest to the ATP Km app.

Sequence of PAK4 (O96013 whole entry): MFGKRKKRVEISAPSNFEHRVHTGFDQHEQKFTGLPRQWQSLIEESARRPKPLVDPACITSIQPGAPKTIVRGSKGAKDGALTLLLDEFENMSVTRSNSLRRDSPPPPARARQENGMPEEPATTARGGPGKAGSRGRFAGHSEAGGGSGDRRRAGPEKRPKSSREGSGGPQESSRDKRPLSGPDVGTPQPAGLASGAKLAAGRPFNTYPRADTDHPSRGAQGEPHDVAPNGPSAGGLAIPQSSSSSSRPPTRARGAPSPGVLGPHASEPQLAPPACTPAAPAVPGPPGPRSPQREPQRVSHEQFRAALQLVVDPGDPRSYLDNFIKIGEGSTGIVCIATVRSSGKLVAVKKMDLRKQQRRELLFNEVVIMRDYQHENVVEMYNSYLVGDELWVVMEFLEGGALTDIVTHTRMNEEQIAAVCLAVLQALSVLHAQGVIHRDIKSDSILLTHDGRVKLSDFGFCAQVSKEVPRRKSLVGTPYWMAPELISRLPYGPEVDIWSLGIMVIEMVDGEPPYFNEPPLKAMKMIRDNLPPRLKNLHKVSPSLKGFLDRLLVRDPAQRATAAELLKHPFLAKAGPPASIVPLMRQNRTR
Sequence of PAK3 (O75914 1-544 isoform O75914-2): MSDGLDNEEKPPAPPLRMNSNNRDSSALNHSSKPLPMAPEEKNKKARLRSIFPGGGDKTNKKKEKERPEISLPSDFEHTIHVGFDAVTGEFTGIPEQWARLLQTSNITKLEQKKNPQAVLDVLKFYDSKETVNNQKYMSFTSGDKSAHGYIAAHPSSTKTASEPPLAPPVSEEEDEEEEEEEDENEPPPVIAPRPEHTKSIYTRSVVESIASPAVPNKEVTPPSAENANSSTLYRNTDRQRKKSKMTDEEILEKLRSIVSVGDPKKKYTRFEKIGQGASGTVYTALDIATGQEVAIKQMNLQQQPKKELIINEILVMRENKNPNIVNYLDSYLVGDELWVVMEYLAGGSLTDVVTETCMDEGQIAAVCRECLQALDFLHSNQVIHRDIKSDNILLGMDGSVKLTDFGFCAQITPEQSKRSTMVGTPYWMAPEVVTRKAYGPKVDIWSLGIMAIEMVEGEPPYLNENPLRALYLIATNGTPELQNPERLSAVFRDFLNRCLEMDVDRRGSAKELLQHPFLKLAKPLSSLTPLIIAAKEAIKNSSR
Sequence of PAK2 (PAK65) (Q13177 whole entry): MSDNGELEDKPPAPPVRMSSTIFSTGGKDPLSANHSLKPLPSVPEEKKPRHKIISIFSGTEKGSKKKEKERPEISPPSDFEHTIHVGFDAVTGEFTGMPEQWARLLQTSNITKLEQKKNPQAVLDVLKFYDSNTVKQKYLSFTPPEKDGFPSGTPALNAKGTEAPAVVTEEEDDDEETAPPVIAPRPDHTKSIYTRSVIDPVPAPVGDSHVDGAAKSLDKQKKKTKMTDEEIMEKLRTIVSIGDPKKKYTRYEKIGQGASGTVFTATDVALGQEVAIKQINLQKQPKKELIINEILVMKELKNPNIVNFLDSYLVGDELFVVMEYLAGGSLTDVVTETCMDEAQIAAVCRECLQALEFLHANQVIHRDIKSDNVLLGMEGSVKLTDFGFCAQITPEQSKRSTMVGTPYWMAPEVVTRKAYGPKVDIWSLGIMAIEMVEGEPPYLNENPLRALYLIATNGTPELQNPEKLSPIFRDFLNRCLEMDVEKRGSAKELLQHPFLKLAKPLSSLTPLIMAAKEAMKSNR
Sequence of PAK1 (Q13153 whole entry): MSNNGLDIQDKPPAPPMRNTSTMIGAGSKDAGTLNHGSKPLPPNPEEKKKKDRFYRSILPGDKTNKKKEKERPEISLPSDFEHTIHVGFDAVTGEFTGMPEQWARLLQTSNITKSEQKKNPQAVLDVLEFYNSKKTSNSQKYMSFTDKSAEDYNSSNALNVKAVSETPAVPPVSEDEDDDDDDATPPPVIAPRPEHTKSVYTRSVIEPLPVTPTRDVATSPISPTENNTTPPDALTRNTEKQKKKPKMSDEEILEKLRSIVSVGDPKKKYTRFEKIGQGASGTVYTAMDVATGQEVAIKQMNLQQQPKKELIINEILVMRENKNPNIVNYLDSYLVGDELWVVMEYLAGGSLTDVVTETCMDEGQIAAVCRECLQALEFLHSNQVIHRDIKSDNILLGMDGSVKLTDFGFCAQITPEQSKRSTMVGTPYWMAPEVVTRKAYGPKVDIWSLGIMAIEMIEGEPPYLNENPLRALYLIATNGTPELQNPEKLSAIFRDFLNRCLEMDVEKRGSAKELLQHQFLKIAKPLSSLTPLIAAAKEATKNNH

As for `CCn1c(=O)c(-c2ccc(-c3nccnc3C)cc2Cl)cc2cnc(NC3CCNC(=O)C3)nc21` (centres unmarked) [Example 33], the concentration for half-maximal inhibition (IC50) in test [1] is 50 to 500 nM; in test [2] it was less than 50 nM; in test [3], 50 to 500 nM; in test [4] it was more than 5000 nM.

In the case of `CCn1c(=O)c(-c2ccc(-c3cncc(C)n3)cc2Cl)cc2cnc(NC3CCOC(C)(C)C3)nc21` (centres unmarked) [Example 31], the half-maximal inhibitory concentration (IC50) in test [1] was 50 to 500 nM; in test [2], 50 to 500 nM; in test [3] it was 50 to 500 nM; in test [4], more than 5000 nM.

Consider `Cc1cncc(-c2ccc(-c3cc4cnc(N[C@@H]5CCOC5)nc4n(CCCN)c3=O)c(Cl)c2)n1` [Example 97], for which the IC50 was 50 to 500 nM in test [1], less than 50 nM in test [2], 50 to 500 nM in test [3] and more than 5000 nM in test [4].

Turning to `CCn1c(=O)c(-c2ccc(-c3noc(C)n3)cc2Cl)cc2cnc(N[C@@H]3CCOC3)nc21` [Example 54], the 50% inhibitory concentration (IC50) in test [1] was 50 to 500 nM; in test [2], 50 to 500 nM; in test [3], 50 to 500 nM; in test [4], more than 5000 nM.

Regarding “6-(2-chloro-4-(5-methyl-1,2,4-oxadiazol-3-yl)phenyl)-2-(4-(1-methylpiperidin-4-yl)phenylamino)pyrido[2,3-d]pyrimidin-7(8H)-one [Example 95]”, the IC50 in test [1] is 50 to 500 nM; in test [2], 50 to 500 nM; in test [3], 500 to 5000 nM; in test [4] it was more than 5000 nM.

As for `CCn1c(=O)c(-c2ccc(-c3cnccc3C)cc2Cl)cc2cnc(NC3CCOCC3)nc21` [Example 47], the half-maximal inhibitory concentration (IC50) in test [1] was 50 to 500 nM; in test [2] it was 500 to 5000 nM; in test [3], 50 to 500 nM; in test [4], more than 5000 nM.

Take `CCn1c(=O)c(-c2ccc(-c3nccnc3C)cc2Cl)cc2cnc(NCCN(C)C)nc21` [Example 13]: the IC50 was 500 to 5000 nM in test [1], 500 to 5000 nM in test [2], 500 to 5000 nM in test [3] and more than 5000 nM in test [4].

As to `Cc1nccnc1-c1ccc(-c2cc3cnc(NC4CCOCC4)nc3n(C3CCCC3)c2=O)c(Cl)c1` [Example 88, 6-(2-chloro-4-(3-methylpyrazin-2-yl)phenyl)-8-cyclopentyl-2-((tetrahydro-2H-pyran-4-yl)amino)pyrido[2,3-d]pyrimidin-7(8H)-one], the half-maximal inhibitory concentration (IC50) in test [1] was 50 to 500 nM; in test [2], 50 to 500 nM; in test [3] it was 50 to 500 nM; in test [4] it was more than 5000 nM.

For the compound `CCn1c(=O)c(-c2ccc(-c3noc(C)n3)cc2Cl)cc2cnc(NCCC3CCN(C)CC3)nc21` [Example 93], the IC50 was less than 50 nM in test [1], less than 50 nM in test [2], 50 to 500 nM in test [3] and more than 5000 nM in test [4].

For `O=c1c(-c2ccc(-c3ccncn3)cc2Cl)cc2cnc(NC3CCOCC3)nc2n1Cc1ccccc1C(F)(F)F` [Example 23], the 50% inhibitory concentration (IC50) in test [1] was 50 to 500 nM; in test [2] it was 50 to 500 nM; in test [3], 50 to 500 nM; in test [4] it was more than 5000 nM.

With `CCn1c(=O)c(-c2ccc(-c3nccnc3C)cc2Cl)cc2cnc(NC3CCN(C)C(=O)C3)nc21` (centres unmarked) [Example 35], the half-inhibitory concentration (IC50) in test [1] is 50 to 500 nM; in test [2], 50 to 500 nM; in test [3], 50 to 500 nM; in test [4], more than 5000 nM.

Take `CCn1c(=O)c(-c2ccc(-c3cncc(C)n3)cc2Cl)cc2cnc(NCCCOCCN)nc21` [Example 133]: the IC50 was 50 to 500 nM in test [1], 50 to 500 nM in test [2], 500 to 5000 nM in test [3] and more than 5000 nM in test [4].

In the case of `Cc1cncc(-c2ccc(-c3cc4cnc(N[C@@H]5CCOC5)nc4n(CCCN(C)C)c3=O)c(Cl)c2)n1` [Example 101], the IC50 in test [1] was less than 50 nM; in test [2] it was less than 50 nM; in test [3] it was 50 to 500 nM; in test [4], more than 5000 nM.

Turning to `CCn1c(=O)c(-c2ccc(-c3cccnc3F)cc2Cl)cc2cnc(NC3CCOCC3)nc21` [Example 12], the IC50 in test [1] is less than 50 nM; in test [2] it was 50 to 500 nM; in test [3] it was less than 50 nM; in test [4] it was more than 5000 nM.

`CCN(CC)CCn1c(=O)c(-c2ccc(-c3cncc(C)n3)cc2Cl)cc2cnc(N[C@@H]3CCOC3)nc21` [Example 96]: the IC50 in test [1] is 50 to 500 nM; in test [2] it was 50 to 500 nM; in test [3], 500 to 5000 nM; in test [4], more than 5000 nM.

For `CCNc1ncc2cc(-c3ccc(-c4nccnc4C)cc3Cl)c(=O)n(CC)c2n1` [Example 6], the half-inhibitory concentration (IC50) in test [1] was 50 to 500 nM; in test [2], 50 to 500 nM; in test [3] it was 50 to 500 nM; in test [4], more than 5000 nM.

With `CCn1c(=O)c(-c2ccc(-c3cncc(C)n3)cc2Cl)cc2cnc(NCCC3CCNCC3)nc21` [Example 135], the 50% inhibitory concentration (IC50) in test [1] was less than 50 nM; in test [2], less than 50 nM; in test [3], less than 50 nM; in test [4], more than 5000 nM.

On to `CCn1c(=O)c(-c2cc(C)c(-c3noc(C)n3)cc2Cl)cc2cnc(N[C@@H]3CCOC3)nc21` [Example 73], for which the 50% inhibitory concentration (IC50) is 500 to 5000 nM in test [1], 500 to 5000 nM in test [2], 500 to 5000 nM in test [3] and more than 5000 nM in test [4].

Consider `CCn1c(=O)c(-c2ccc(-c3cccnc3C)cc2Cl)cc2cnc(NC3CCOCC3)nc21` [Example 45], for which the IC50 is 50 to 500 nM in test [1], 500 to 5000 nM in test [2], 500 to 5000 nM in test [3] and more than 5000 nM in test [4].

Regarding `CCn1c(=O)c(-c2ccc(-c3cccnc3F)cc2Cl)cc2cnc(N[C@@H]3CCOC3)nc21` [Example 40], the IC50 in test [1] was less than 50 nM; in test [2], 50 to 500 nM; in test [3], 50 to 500 nM; in test [4] it was more than 5000 nM.

As for `Cc1cncc(-c2ccc(-c3cc4cnc(NC5CCCCC5)nc4n([C@H]4CC[C@H](N)CC4)c3=O)c(Cl)c2)n1` [Example 114], the 50% inhibitory concentration (IC50) in test [1] is less than 50 nM; in test [2], less than 50 nM; in test [3], 50 to 500 nM; in test [4], more than 5000 nM.

`Cc1cncc(-c2ccc(-c3cc4cnc(NC5CC5)nc4n([C@H]4CC[C@H](N)CC4)c3=O)c(Cl)c2)n1` [Example 112]: the 50% inhibitory concentration (IC50) in test [1] is less than 50 nM; in test [2] it was less than 50 nM; in test [3] it was less than 50 nM; in test [4], 500 to 5000 nM.

As for `Cc1cncc(-c2ccc(-c3cc4cnc(N[C@@H]5CCOC5)nc4n([C@H]4CC[C@H](N)CC4)c3=O)c(Cl)c2)n1` [Example 109], the IC50 in test [1] was less than 50 nM; in test [2], less than 50 nM; in test [3], 50 to 500 nM; in test [4] it was more than 5000 nM.

Regarding `COCCCn1c(=O)c(-c2ccc(-c3cncc(C)n3)cc2Cl)cc2cnc(N[C@H]3CCOC3)nc21` [Example 65], the concentration for half-maximal inhibition (IC50) in test [1] was less than 50 nM; in test [2] it was less than 50 nM; in test [3], 50 to 500 nM; in test [4], more than 5000 nM.

As for `Cc1cncc(-c2ccc(-c3cc4cnc(N[C@@H]5CCOC5)nc4n(CCN4CCCC4)c3=O)c(Cl)c2)n1` [Example 104], the 50% inhibitory concentration (IC50) in test [1] is 50 to 500 nM; in test [2], 50 to 500 nM; in test [3], 500 to 5000 nM; in test [4], more than 5000 nM.

For the compound `CCn1c(=O)c(-c2ccc(-c3noc(C)n3)cc2Cl)cc2cnc(N[C@H]3CC[C@H](N)CC3)nc21` [Example 94], the half-maximal inhibitory concentration (IC50) in test [1] was 50 to 500 nM; in test [2], 50 to 500 nM; in test [3], 50 to 500 nM; in test [4], more than 5000 nM.

Take `CCn1c(=O)c(-c2ccc(-c3nccnc3C)cc2Cl)cc2cnc(NC3CCOC(C)(C)C3)nc21` (racemic) [Example 30]: the half-inhibitory concentration (IC50) in test [1] was less than 50 nM; in test [2] it was less than 50 nM; in test [3] it was less than 50 nM; in test [4], more than 5000 nM.

For the compound `CCn1c(=O)c(-c2ccc(-c3nccnc3C)cc2Cl)cc2cnc(NC3CCCOC3)nc21` (centres unmarked) [Example 17], the IC50 in test [1] was 50 to 500 nM; in test [2] it was 50 to 500 nM; in test [3] it was 50 to 500 nM; in test [4], more than 5000 nM.

Take `CCn1c(=O)c(-c2ccc(-c3nccnc3C)cc2Cl)cc2cnc(N[C@@H]3CCOC(C)(C)C3)nc21` (stereo in doubt) [Example 76]: the IC50 in test [1] was less than 50 nM; in test [2], less than 50 nM; in test [3], 50 to 500 nM; in test [4], more than 5000 nM.

As a reminder, the IC50 is the midpoint of a concentration-inhibition curve.
